The test system of experiment [1] is T1, Lysosomal alpha-mannosidase (Homo sapiens), O00754 [R916C].
T1 sequence (whole entry): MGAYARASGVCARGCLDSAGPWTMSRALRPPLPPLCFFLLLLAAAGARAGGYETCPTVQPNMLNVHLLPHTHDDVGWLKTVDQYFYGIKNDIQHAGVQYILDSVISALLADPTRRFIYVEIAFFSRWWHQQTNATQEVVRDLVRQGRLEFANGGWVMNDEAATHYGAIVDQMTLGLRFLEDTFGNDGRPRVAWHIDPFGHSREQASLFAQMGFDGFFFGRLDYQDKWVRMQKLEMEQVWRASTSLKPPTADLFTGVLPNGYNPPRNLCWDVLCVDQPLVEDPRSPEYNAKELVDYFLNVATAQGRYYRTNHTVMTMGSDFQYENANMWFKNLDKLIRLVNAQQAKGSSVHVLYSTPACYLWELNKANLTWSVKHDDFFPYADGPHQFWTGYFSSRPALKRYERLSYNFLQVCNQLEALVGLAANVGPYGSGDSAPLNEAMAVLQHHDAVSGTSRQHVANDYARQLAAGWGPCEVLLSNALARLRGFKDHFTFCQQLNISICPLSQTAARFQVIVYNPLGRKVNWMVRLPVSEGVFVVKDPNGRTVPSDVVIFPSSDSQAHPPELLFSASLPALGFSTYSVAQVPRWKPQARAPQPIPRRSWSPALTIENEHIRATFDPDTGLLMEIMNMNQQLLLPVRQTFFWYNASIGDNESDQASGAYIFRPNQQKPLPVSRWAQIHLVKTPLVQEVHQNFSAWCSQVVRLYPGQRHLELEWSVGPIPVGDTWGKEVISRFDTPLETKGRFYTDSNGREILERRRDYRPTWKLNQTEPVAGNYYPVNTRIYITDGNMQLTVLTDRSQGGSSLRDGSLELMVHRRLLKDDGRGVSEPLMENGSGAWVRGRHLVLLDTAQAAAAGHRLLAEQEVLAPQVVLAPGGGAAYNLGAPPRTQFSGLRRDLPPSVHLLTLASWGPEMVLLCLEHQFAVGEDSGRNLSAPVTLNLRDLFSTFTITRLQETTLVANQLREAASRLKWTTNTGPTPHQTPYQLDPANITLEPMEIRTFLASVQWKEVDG
The experiment can be described thus: Chaperone activity at human Lysosomal alpha-mannosidase R916C mutant transfected in human […] knockout HAP1 cells assessed as enzyme activity enhancement at 0.2 uM incubated for 96 hrs relative to control.

Experiment [2] deals with T2, Lysosomal alpha-mannosidase (Homo sapiens) (UniProt O00754).
T2 sequence (whole entry): T1 sequence (whole entry) with C916R
The experiment can be described thus: Chaperone activity at Lysosomal alpha-mannosidase in wild-type human fibroblasts assessed as increase in Lysosomal alpha-mannosidase activity at 0.2 uM using 4-methylumbelliferone alpha-D-mannopyranoside as a reporter substrate incubated for 4 days by fluorescence method relative to control.

Residue numbers refer to the chain shown, from its start.

Turning to `CC(C)(C)OC(=O)NCCCCCCCCCN[C@@H]1[C@@H](O)[C@@H](O)[C@H](O)[C@H]2COC(=O)N21`, the Activity in experiment [1] amounted to 8%. For the compound `COC[C@H]1O[C@@H]2O[C@H]3[C@H](OC)[C@@H](OC)[C@@H](O[C@H]4[C@H](OC)[C@@H](OC)[C@@H](O[C@H]5[C@H](OC)[C@@H](OC)[C@@H](O[C@H]6[C@H](OC)[C@@H](OC)[C@@H](O[C@H]7[C@H](OC)[C@@H](OC)[C@@H](O[C@H]8[C@H](OC)[C@@H](OC)[C@@H](O[C@H]1[C@H](OC)[C@H]2OC)O[C@@H]8COC)O[C@@H]7COC)O[C@@H]6COC)O[C@@H]5COCc1cn(CCCCCCN[C@@H]2[C@@H](O)[C@@H](O)[C@H](O)[C@H]5COC(=O)N52)nn1)O[C@@H]4COC)O[C@@H]3COC`, the fold change (FC) in experiment [2] is 2. In addition, the Activity in experiment [1] amounted to 45%. Consider `CCCc1cn(CCCCCCN[C@@H]2[C@@H](O)[C@@H](O)[C@H](O)[C@H]3COC(=O)N32)nn1`, for which the fold change (FC) in experiment [2] came to 2.

(Values after ChEMBL document CHEMBL4396870, “Pharmacological Chaperones for the Treatment of α-Mannosidosis” (J Med Chem, 2019).)
